{
  "source": "patent US7816353B2",
  "about": "(Exelixis, Inc., priority 2003, dated 2010)",
  "data": [
    {"target": "T1, p70S6K (Homo sapiens, UniProt P23443, T412E)", "T1 construct": "human p70S6 kinase domain residues 1-421, containing a T412E mutation; made in house", "T1 sequence (P23443 1-421 T412E)": "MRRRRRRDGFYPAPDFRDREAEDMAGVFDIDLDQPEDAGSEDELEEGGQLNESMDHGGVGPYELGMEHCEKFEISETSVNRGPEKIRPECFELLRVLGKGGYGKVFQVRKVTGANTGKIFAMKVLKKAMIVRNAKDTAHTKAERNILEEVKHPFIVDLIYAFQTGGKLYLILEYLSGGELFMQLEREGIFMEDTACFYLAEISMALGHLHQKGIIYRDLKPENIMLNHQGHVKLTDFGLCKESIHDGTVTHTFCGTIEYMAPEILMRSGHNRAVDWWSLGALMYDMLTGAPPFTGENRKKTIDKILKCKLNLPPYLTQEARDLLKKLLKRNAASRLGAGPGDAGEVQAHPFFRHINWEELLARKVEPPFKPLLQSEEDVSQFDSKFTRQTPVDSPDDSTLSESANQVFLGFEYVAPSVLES", "experiment": "p70S6 Kinase Assay (Luciferase-Coupled Chemiluminescent Kinase assay, LCCA)", "format": "biochemical", "details": "human p70S6 kinase domain residues 1-421, T412E; 5 μM ATP; read-out: p70S6K IC50", "method": "(§1) Kinase activity and compound inhibition are investigated using one or more of the three assay formats described below. The ATP concentrations for each assay are selected to be close to the Michaelis-Menten constant (KM) for each individual kinase. Dose-response experiments are performed at 10 different inhibitor concentrations in a 384-well plate format. […] Y=Min+(Max−Min)/(1+(X/IC50)^H) Equation (2) p70S6 Kinase Assay\n(§2) Biochemical activity of p70S6 kinase was assessed using a Luciferase-Coupled Chemiluminescent Kinase assay (LCCA) format. Kinase activity was measured as the percent ATP remaining following the kinase reaction. Remaining ATP was detected by luciferase-luciferin-coupled chemiluminescence. […] The mixture is incubated at ambient temperature for 2 hours after which 20 μL luciferase-luciferin mix is added and the chemiluminescent signal read using a Wallac Victor^2 reader.", "units": {"IC50": "nM"}, "values": [
      {"compound": "CSc1nc(N)nc(N[C@@H](CCCCN(C)C)C(=O)Nc2cccc(C(F)(F)F)c2)c1C#N", "note": "[Example 171, N~2~-[2-amino-5-cyano-6-(methylthio)pyrimidin-4-yl]-N~6~,N~6~-dimethyl-N-[3-(trifluoromethyl)phenyl]-L-lysinamide]", "IC50": "> 2000"},
      {"compound": "COCCN(CCC[C@H](Nc1nc(N)nc(SC)c1C#N)C(=O)Nc1cccc(C(F)(F)F)c1)CCOC", "note": "[Example 184, N~2~-[2-amino-5-cyano-6-(methylthio)pyrimidin-4-yl]-N~5~,N~5~-bis[2-(methyloxy)ethyl]-N-[3-(trifluoromethyl)phenyl]-L-ornithinamide]", "IC50": "> 2000"},
      {"compound": "CCOc1nc(N)nc(N[C@@H](C)C(=O)Nc2cc(C(=O)N3CCN(C)CC3)cc(C(F)(F)F)c2)c1C#N", "note": "[Example 157, N~2~-[2-amino-5-cyano-6-(ethyloxy)pyrimidin-4-yl]-N-[3-[(4-methylpiperazin-1-yl)carbonyl]-5-(trifluoromethyl)phenyl]-L-alaninamide]", "IC50": "> 2000"},
      {"compound": "CCN(CC)CCNc1cc(NC(=O)[C@H](C)Nc2nc(N)nc(SC)c2C#N)cc(C(F)(F)F)c1", "note": "[Example 106, N^2-[2-amino-5-cyano-6-(methylthio)pyrimidin-4-yl]-N-[3-{[2-(diethylamino)ethyl]amino}-5-(trifluoromethyl)phenyl]-L-alaninamide]", "IC50": "> 2000"},
      {"compound": "CCOc1nc(N)nc(N[C@@H](CCCNC(C)=O)C(=O)Nc2cccc(C(F)(F)F)c2)c1C#N", "note": "[Example 186, N~5~-acetyl-N~2~-[2-amino-5-cyano-6-(ethyloxy)pyrimidin-4-yl]-N-[3-(trifluoromethyl)phenyl]-L-ornithinamide]", "IC50": "> 2000"},
      {"compound": "CSc1nc(N)nc(N(C)CC(=O)Nc2cccc(C(F)(F)F)c2)c1C#N", "note": "[Example 72, N^2-[2-amino-5-cyano-6-(methylthio)pyrimidin-4-yl]-N^2-methyl-N-[3-(trifluoromethyl)phenyl]glycinamide]", "IC50": "> 2000"},
      {"compound": "CSc1nc(N)nc(OC2(C(=O)Nc3cccc(C(F)(F)F)c3)CC2)c1C#N", "note": "[Example 69, 1-{[2-amino-5-cyano-6-(methylthio)pyrimidin-4-yl]oxy}-N-[3-(trifluoromethyl)phenyl]cyclopropanecarboxamide]", "IC50": "500 to 2000"},
      {"compound": "COc1nc(N)nc(N(C)[C@@H](C)C(=O)Nc2cccc(Br)c2)c1C#N", "note": "[Example 181, N~2~-[2-amino-5-cyano-6-(methyloxy)pyrimidin-4-yl]-N-(3-bromophenyl)-N~2~-methyl-L-alaninamide]", "IC50": "> 2000"},
      {"compound": "N#Cc1c(SCC(=O)Nc2cccc(C(F)(F)F)c2)nc(N)nc1N1CCOCC1", "note": "[Example 84, 2-[(2-amino-5-cyano-6-morpholin-4-ylpyrimidin-4-yl)thio]-N-[3-(trifluoromethyl)phenyl]acetamide]", "IC50": "> 2000"},
      {"compound": "COCCNc1nc(N[C@@H](C)C(=O)Nc2cccc(C(F)(F)F)c2)c(C#N)c(SC)n1", "note": "[Example 116]", "IC50": "> 2000"},
      {"compound": "CCOc1nc(N)nc(N[C@@H](CCC(=O)OCc2ccccc2)C(=O)Nc2cccc(C(F)(F)F)c2)c1C#N", "note": "[Example 165, phenylmethyl N~2~-[2-amino-5-cyano-6-(ethyloxy)pyrimidin-4-yl]-N-[3-(trifluoromethyl)phenyl]-L-apha-glutaminate]", "IC50": "> 2000"},
      {"compound": "CSc1nc(N)nc(N[C@@H](CCCCNC(=O)OC(C)(C)C)C(=O)Nc2cccc(C(F)(F)F)c2)c1C#N", "note": "[Example 103, N^2-[2-amino-5-cyano-6-(methylthio)pyrimidin-4-yl]-N-6-{[(1,1-dimethylethyl)oxy]carbonyl}-N-[3-(trifluoromethyl)phenyl]-L-lysinamide]", "IC50": "> 2000"},
      {"compound": "Nc1nc(NCC(=O)Nc2cccc(C(F)(F)F)c2)c2cn[nH]c2n1", "note": "[Example 57, N^2-(6-amino-1H-pyrazolo[3,4-d]pyrimidin-4-yl)-N-[3-(trifluoromethyl)phenyl]glycinamide]", "IC50": "500 to 2000"},
      {"compound": "CSc1nc(N)nc(N(C)[C@@H](C)C(=O)Nc2cccc(C(F)(F)F)c2)c1C#N", "note": "[Example 91, N^2-[2-amino-5-cyano-6-(methylthio)pyrimidin-4-yl]-N^2-methyl-N-[3-(trifluoromethyl)phenyl]-L-alaninamide]", "IC50": "> 2000"},
      {"compound": "C[C@H](Nc1nc(N)nc(N)c1C#N)C(=O)Nc1cccc(C(F)(F)F)c1", "note": "[Example 89, N^2-(2,6-diamino-5-cyanopyrimidin-4-yl)-N-[3-(trifluoromethyl)phenyl]-L-alaninamide]", "IC50": "> 2000"},
      {"compound": "CSc1nc(N)nc(N2CCC[C@H]2C(=O)Nc2cccc(C(F)(F)F)c2)c1C#N", "note": "[Example 67, (S)-1-[2-amino-5-cyano-6-(methythio)pyrimidin-4-yl]-N-[3-(trifluoromethyl)phenyl]prolinamide]", "IC50": "500 to 2000"},
      {"compound": "Cc1nc2oc(C(=O)Nc3cccc(C(F)(F)F)c3)c(N)c2c(C)c1N", "note": "[Example 97, 3,5-diamino-4,6-dimethyl-N-[3-(trifluoromethyl)phenyl]furo[2,3-b]pyridine-2-carboxamide]", "IC50": "> 2000"},
      {"compound": "CSc1nc(N)nc(N[C@@H](CN2CCOCC2)C(=O)Nc2cccc(C(F)(F)F)c2)c1C#N", "note": "[Example 191, N~2~-[2-amino-5-cyano-6-(methylthio)pyrimidin-4-yl]-3-morpholin-4-yl-N-[3-(trifluoromethyl)phenyl]-L-alaninamide]", "IC50": "> 2000"},
      {"compound": "CSc1nc(N)nc(N(C)[C@@H](CCCCNC(=O)OCc2ccccc2)C(=O)Nc2cccc(C(F)(F)F)c2)c1C#N", "note": "[Example 153, N~2~-[2-amino-5-cyano-6-(methylthio)pyrimidin-4-yl]-N~2~-methyl-N~6~-{[(phenylmethyl)oxy]carbonyl}-N-[3-(trifluoromethyl)phenyl]-L-lysinamide]", "IC50": "> 2000"},
      {"compound": "C[C@H](Nc1nc(N)nc(O)c1C#N)C(=O)Nc1cccc(C(F)(F)F)c1", "note": "[Example 99, N^2-(2-amino-5-cyano-6-hydroxypyrimidin-4-yl)-N-[3-(trifluoromethyl)phenyl]-L-alaninamide]", "IC50": "> 2000"},
      {"compound": "C[C@H](Nc1nc(N)nc(N[C@@H](C)C(=O)Nc2cccc(C(F)(F)F)c2)c1C#N)C(=O)Nc1cccc(C(F)(F)F)c1", "note": "[Example 108, 2-{2-amino-5-cyano-6[1-(3-trifluoromethyl-phenylcarbamoyl)-1S-ethylamino]-pyrimidin-4-ylamino}N-(3-trifluoromethyl-phenyl)-2S-propionamide]", "IC50": "> 2000"},
      {"compound": "CCOc1nc(N)nc(N[C@@H](COCc2ccccc2)C(=O)Nc2cccc(C(F)(F)F)c2)c1C#N", "note": "[Example 151, N~2~-[2-amino-5-cyano-6-(ethyloxy)pyrimidin-4-yl]-O-(phenylmethyl)-N-[3-(trifluoromethyl)phenyl]-L-serinamide]", "IC50": "> 2000"},
      {"compound": "CSc1nc(N)nc(N(CCC2CCOCC2)CC(=O)Nc2cccc(C(F)(F)F)c2)c1C#N", "note": "[Example 105, N^2-[2-amino-5-cyano-6-(methylthio)pyrimidin-4-yl]-N^2-[2-(tetrahydro-2H-pyran-4-4yl)ethyl]-N-[3-(trifluoromethyl)phenyl]glycinamide]", "IC50": "> 2000"},
      {"compound": "C[C@H](Nc1nc(N)nc(S(C)(=O)=O)c1C#N)C(=O)Nc1cccc(C(F)(F)F)c1", "note": "[Example 75, N^2-[2-amino-5-cyano-6-(methylsulfonyl)pyrimidin-4-yl]-N-[3-(trifluoromethyl)phenyl]-L-alaninamide]", "IC50": "> 2000"}
    ]},
    {"target": "T1, p70S6K", "experiment": "p70S6 Kinase Assay (Luciferase-Coupled Chemiluminescent Kinase assay, LCCA)", "format": "biochemical", "details": "p70S6K IC50, human p70S6 kinase domain residues 1-421, T412E; 5 μM ATP", "method": "as §1, §2", "units": {"IC50": "nM"}, "values": [
      {"compound": "CSc1nc(N)nc(O[C@H](C)C(=O)Nc2cccc(C(F)(F)F)c2)c1C#N", "note": "[Example 68, (2R)-2-{[2-amino-5-cyano-6-(methylthio)pyrimidin-4-yl]oxy}-N-[3-(trifluoromethyl)phenyl]propanamide]", "IC50": "500 to 2000"}
    ]}
  ]
}
